From patent US20240382475A1, “Quinazoline Derivative, Or Preparation Method Therefor And Use Thereof” (Zhejiang Hisun Pharmaceutical Co., Ltd., priority 2021, published 2024)

Tests used:
p-ERK1/2 in DLD-1 cells = experiment: Inhibition of p-ERK1/2 in DLD-1 cells (Cisbio Advanced phospho-ERK1/2 kit); assay type: cell-based; conditions: Homo sapiens; DLD-1 cells (KRAS G13D mutation), hEGF 5 nM stimulation; read-out: IC50 (nM) Inhibition on p-ERK½ in DLD-1 cells
Text: The following method was used to determine the inhibition activities of the compounds of the present invention on p-ERK1/2 in DLD-1 cells. The Advanced phospho-ERK1/2 (Thr202/tyr2O4) kit (Art. No. 64AERPEH) from Cisbio was used in this method. Please refer to the kit instruction for detailed experimental operations. DLD-1 cells (containing KRAS G13D mutation) were purchased from the Cell Resource Center of Shanghai Institutes for Biological Sciences, Chinese Academy of Sciences.
The experimental process can be briefly described as follows: DLD-1 cells were cultured in RPMI 1640 complete medium containing 10% fetal bovine serum, 100 U penicillin, 100 μg/mL streptomycin and 1 mM Sodium Pyruvate. DLD-1 cells were plated in a 96-well plate at 30,000 cells per well, after cultured overnight in 5% CO2 incubator at 37° C. with complete culture medium. The test compounds were dissolved in DMSO to prepare storage solutions of 10 mM, and then diluted with RPMI 1640 basic mediums. 90 μL of RPMI 1640 basic mediums containing the test compounds at the corresponding concentration were added to each well. The final concentrations of the test compounds in the reaction system were 10,000 nM to 0.15 nM, and were placed in a cell culture incubator for 3 hours and 40 minutes. Subsequently, 10 μL of hEGF (purchased from Roche, Art. No. 11376454001) prepared with RPMI 1640 basic medium was added to a final concentration of 5 nM, and placed in the incubator for culturing for 20 minutes. The cell supernatant was discarded, and the cells were washed with PBS on ice-bath. Then, 45 μl of 1× cell phospho/total protein lysis buffer (component of Advanced phospho-ERK1/2 kit) was added to each well for lysis. The 96-well plate was placed on ice for 0.5 hours to lyse, and then the lysate was detected according to the instruction of the Advanced phospho-ERK1/2 (Thr202/tyr2O4) kit. Finally, the microplate reader was used in […] mode to measure the fluorescence intensity of each well emitting wavelengths of 620 nm and […] under the excitation wavelength of 304 nm, and the fluorescence intensity ratio 665/620 in each well was calculated. By comparing with the fluorescence intensity ratio of a control group (0.1% DMSO), the percentage inhibition rates of the test compounds at each concentration were calculated, and the IC50 values of the compounds were obtained by performing nonlinear regression analysis with logarithmic values of the compound concentration-inhibition rate by GraphPad Prism 5 software, which can be seen in Table 3.

OCI-AML5 cells = experiment: Inhibition of OCI-AML5 cell proliferation (CellTiter-Glo); assay type: cell-based; conditions: Homo sapiens, OCI-AML-5; OCI-AML5 cells (SOS1 N233Y mutation), 120 hours
How it was run: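 OCI-AML5 cells (SOS1 N233Y), 1,000 per well, treated after overnight culture with compound at final 10000 nM to 0.15 nM for 120 hours at 37° C, 5% CO2. Viability read by CellTiter-Glo luminescence.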

SMILES | IC50 (p-ERK1/2 in DLD-1 cells) | IC50 (OCI-AML5 cells)
COc1cc2nc(C)nc(N[C@H](C)c3cccc(C#N)c3C)c2cc1N1CCOCC1 [Compound 1, (R)-3-(1-((7-methoxy-2-methyl-6-morpholinoquinazolin-4-yl)amino)ethyl)-2-methylbenzonitrile] | 48.7 nM | 46.4 nM
COc1cc2nc(C)nc(N[C@H](C)c3cccc(C#N)c3C)c2cc1N1CCN(C(C)=O)CC1 [Compound 2, (R)-3-(1-((6-(4-acetylpiperazin-1-yl)-7-methoxy-2-methylquinazolin-4-yl)amino)ethyl)-2-methylbenzonitrile] | 65.4 nM | 8.4 nM
COc1cc2nc(C)nc(N[C@H](C)c3cccc(C#N)c3C)c2cc1N1CCC2(CCOCC2)CC1 [Compound 4, (R)-3-(1-((7-methoxy-2-methyl-6-(3-oxa-9-azaspiro[5.5]undecan-9-yl)quinazolin-4-yl)amino)ethyl)-2-methylbenzonitrile] | – | 6.3 nM
COc1cc2nc(C)nc(N[C@H](C)c3cccc(C#N)c3C)c2cc1N1CCC2(CC1)COC2 [Compound 5, (R)-3-(1-((7-methoxy-2-methyl-6-(2-oxa-7-azaspiro[3.5]nonan-7-yl)quinazolin-4-yl)amino)ethyl)-2-methylbenzonitrile] | 66.1 nM | 11.3 nM
COc1cc2nc(C)nc(N[C@H](C)c3cccc(C#N)c3C)c2cc1N1CCC2(CCN(C)C2=O)CC1 [Compound 7, (R)-3-(1-((7-methoxy-2-methyl-6-(2-methyl-1-oxo-2,8-diazaspiro[4.5]decan-8-yl)quinazolin-4-yl)amino)ethyl)-2-methylbenzonitrile] | 31.1 nM | 2.7 nM
COc1cc2nc(C)nc(N[C@H](C)c3cccc(C#N)c3C)c2cc1N1CCC(C#N)CC1 [Compound 8, (R)-1-(4-((1-(3-cyano-2-methylphenyl)ethyl)amino)-7-methoxy-2-methylquinazolin-6-yl)piperidine-4-carbonitrile] | 38.2 nM | 12 nM
COc1cc2nc(C)nc(N[C@H](C)c3cccc(C#N)c3C)c2cc1N1CCC(C)(O)CC1 [Compound 11, (R)-3-(1-((6-(4-hydroxy-4-methylpiperidin-1-yl)-7-methoxy-2-methylquinazolin-4-yl)amino)ethyl)-2-methylbenzonitrile] | 29.7 nM | 13.6 nM
COc1cc2nc(C)nc(N[C@H](C)c3cccc(C#N)c3C)c2cc1N1CCC2(CC1)CN(C(C)=O)C2 [Compound 19, (R)-3-(1-((6-(2-acetyl-2,7-diazaspiro[3.5]nonan-7-yl)-7-methoxy-2-methylquinazolin-4-yl)amino)ethyl)-2-methylbenzonitrile] | 46.3 nM | 16.4 nM
